Assay results taken from publication PMC11219871, “Epigenetic-based differentiation therapy for Acute Myeloid Leukemia” (Nature Communications, 2024).
Values joined by “and” are separate entries in the source; they are usually repeats but may differ in a detail not shown here. Equal entries are not always repeated.

Legend:
Assay type in all cases: cell-based, human
HL-60 = assay: Differentiation-apoptosis assay, CD11b / annexin-V / Sytox Green / myeloid markers flow cytometry; set-up: Cell viability (%): concentration or dose not given beside the values; CD11b levels: unit not given here
In short: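 HL-60 cells were stained for the myeloid differentiation marker CD11b, with annexin-V and Sytox Green marking apoptosis and cell death. Cells were washed in PBS and resuspended at 1 × 10^6 cells/mL in binding buffer; marker staining of 1 million cells was for 30 min at room temperature in the dark, followed by red-cell lysis. Readout was flow cytometry.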

MOLM-13 = assay: as above; set-up: Cell viability (%): concentration or dose not given beside the values; CD11b levels: unit not given here
In short: (§1)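 Differentiation and apoptosis were read by flow cytometry after 15 min dark staining at room temperature with APC-CD11b plus FITC annexin-V, 1 × 10^6 cells/mL in binding buffer. Myeloid markers CD13, HLA-DR and CD14 were stained in separate runs for 30 min, followed by lysis and washing.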

MV4-11 = assay: as above; set-up: Cell viability (%): concentration or dose not given beside the values; CD11b levels: unit not given here
In short: as §1

[1] = tested on: primary AML patient samples; assay: Differentiation assay, CD11b flow cytometry in primary samples; conditions: for CD11b-positive cells (%): daily 48 h
Description: Next, the cells were washed twice with phosphate-buffered saline (PBS) and resuspended in 1X Binding Buffer at a concentration of 1 × 10^6 cells/mL. An 8-µL aliquot of APC-CD11b (BD Pharmingen, Franklin Lakes, NJ, USA) and 1 µL of FITC annexin-V (AV) (BD Pharmingen, Franklin Lakes, NJ, USA) antibodies were added and incubated for 15 min at room temperature in the dark. Finally, after the addition of 400 µL of 1X Binding Buffer to each tube, samples were collected on a BD FACSCanto flow cytometer (Becton Dickinson, San Jose, CA, USA) and analyzed using FlowJo software.
Peripheral blood (PB) specimens were obtained from preliminarily diagnosed AML patients who had not received any treatment before specimens were collected. All patients gave informed consent for their participation in this study, which was approved by the Clinical Research Ethics Committee of Clínica Universidad de Navarra. Written informed consent was obtained from each participant. PB was mixed with an ammonium chloride-potassium (ACK) buffer lysis (0.15 mol/L NH4Cl, 10 mmol/L KHCO3, 0.1 mmol/L ethylenediaminetetraacetic acid, pH 7.2) at a 1:2 volume ratio by gentle inversion, incubated for 10 min and centrifuged at 200 g for 10 min. The cell pellet was washed twice with PBS and finally resuspended in EGM2 medium (Cambrex Bioscience, Walkersville, MD). EGM2 contains 2% fetal calf serum, hydrocortisone, heparin, antibiotics, epidermal growth factor, human fibroblast growth factor, insulin-like growth factor, vascular endothelial growth factor, and ascorbic acid. The cells were plated at 1 × 10^6 cells/mL and treated daily with 200 and 500 nM of CM-444 and CM-1758 for 48 h. Next, the differentiation assay was performed as described above.

[2] = HL-60, 48 h treatment, replicates 1-3 (Suppl. Fig. 5A)
[3] = HL-60, daily treatment, time 0 days, replicates 1-3 (Figure 2B)
[4] = HL-60, daily treatment, time 2 days, replicates 1-3 (Figure 2B)
[5] = HL-60, daily treatment, time 4 days, replicates 1-3 (Figure 2B)
[6] = HL-60, daily treatment, time 6 days, replicates 1-3 (Figure 2B)
[7] = HL-60, daily treatment, time 8 days, replicates 1-3 (Figure 2B)
[8] = MOLM-13, 48 h treatment, replicates 1-3 (Suppl. Fig. 5A)
[9] = MOLM-13, daily treatment, time 0 days
[10] = MOLM-13, daily treatment, time 2 days
[11] = MOLM-13, daily treatment, time 4 days
[12] = MOLM-13, daily treatment, time 6 days
[13] = MOLM-13, daily treatment, time 8 days
[14] = MV4-11, 48 h treatment, replicates 1-3 (Suppl. Fig. 5A)
[15] = MV4-11, daily treatment, time 0 days
[16] = MV4-11, daily treatment, time 2 days
[17] = MV4-11, daily treatment, time 4 days
[18] = MV4-11, daily treatment, time 6 days

COc1cc2nc(-c3ccc(C)o3)cc(NCC3CCN(c4ncc(C(=O)NO)cn4)CC3)c2cc1OC [CM-444, 2-[4-[[[6,7-dimethoxy-2-(5-methyl-2-furyl)-4-quinolyl]amino]methyl]-1-piperidyl]pyrimidine-5-carbohydroxamic acid]
percentage of CD11b (HL-60; HL-60, 270 nM CM-444 or 300 nM CM-1758 daily for 4 days, before injection): > 90% | CD11b (%) (HL-60; HL-60, 48 h): 74.3% | CD13 (%) (HL-60; HL-60, 48 h): 100% | CD14 (%) (HL-60; HL-60, 48 h): 21.5% | HLA-DR (%) (HL-60; HL-60, 48 h): 9.16% | CD11b (%) (HL-60; [2]): 71.2% and 75.4% and 68.7% | Cell viability (%) (HL-60; [2]): 78.5% and 72.1% and 82.5% | differentiation level (CD11b) (HL-60; HL-60, after 6–8 days of treatment): ~90% | Annexin V (%) Replicate 1 (HL-60; HL-60, daily 25% GI50, 48 h): 0.75% | Annexin V (%) Replicate 2 (HL-60; HL-60, daily 25% GI50, 48 h): 0.49% | Annexin V (%) Replicate 3 (HL-60; HL-60, daily 25% GI50, 48 h): 0.44% | CD11b (%) Replicate 1 (HL-60; HL-60, daily 25% GI50, 48 h): 86.24% | CD11b (%) Replicate 2 (HL-60; HL-60, daily 25% GI50, 48 h): 75.15% | CD11b (%) Replicate 3 (HL-60; HL-60, daily 25% GI50, 48 h): 76.65% | Annexin-V (%) (HL-60; [3]): 0% and 4.96% and 3.21% | CD11b (%) (HL-60; [3]): 13.33% and 12.5% and 10.8% | Annexin-V (%) (HL-60; [4]): 6.83% and 2.49% and 5.41% | CD11b (%) (HL-60; [4]): 79.45% and 76.2% and 73.9% | Annexin-V (%) (HL-60; [5]): 0% and 2.98% and 3.14% | CD11b (%) (HL-60; [5]): 95.2% and 93.5% and 90.4% | Annexin-V (%) (HL-60; [6]): 9.4% and 2.53% and 5.87% | CD11b (%) (HL-60; [6]): 93% and 97.3% and 95.8% | Annexin-V (%) (HL-60; [7]): 0% and 4.09% and 6.81% | CD11b (%) (HL-60; [7]): 98.61% and 98.5% and 97.1% | CD11b (%) (HL-60; HL-60 cell line, replicates 1-3 (Figure 2A)): 88.3% and 85.7% and 88.0% | CD11b levels (HL-60; HL-60 treated daily for 48 h, replicates (Fig 6D)): 76.5 and 85.9 and 92.1 | CD11b (%) (MOLM-13; MOLM-13, 48 h): 92.8% | CD13 (%) (MOLM-13; MOLM-13, 48 h): 49.3% | CD14 (%) (MOLM-13; MOLM-13, 48 h): 66.5% | HLA-DR (%) (MOLM-13; MOLM-13, 48 h): 35.1% | CD11b (%) (MOLM-13; [8]): 94.2% and 88.9% and 85.7% | Cell viability (%) (MOLM-13; [8]): 70.2% and 63.7% and 70.7% | differentiation level (CD11b) (MOLM-13; MOLM-13, after 6–8 days of treatment): ~90% | CD11b levels (MOLM-13; MOLM-13, daily treatment for 48 h, replicates 1-3 (Suppl. Fig. 9A)): 43.6 and 50.7 and 40.2 | Annexin-V (%) (MOLM-13; [9]): 4.46% and 6.55% and 4.89% | CD11b (%) (MOLM-13; [9]): 6.62% and 4.5% and 6.9% | Annexin-V (%) (MOLM-13; [10]): 24.6% and 15.6% and 17.4% | CD11b (%) (MOLM-13; [10]): 63% and 58.9% and 57.2% | Annexin-V (%) (MOLM-13; [11]): 66.7% and 40.3% and 35.6% | CD11b (%) (MOLM-13; [11]): 60% and 65.3% and 63.1% | Annexin-V (%) (MOLM-13; [12]): 72.2% and 50.7% and 45.3% | CD11b (%) (MOLM-13; [12]): 66.7% and 70.8% and 65.2% | Annexin-V (%) (MOLM-13; [13]): 68.1% and 55.1% and 49.2% | CD11b (%) (MOLM-13; [13]): 68.9% and 75.7% and 73.6% | CD11b (%) (MOLM-13; MOLM-13 cell line, replicates 1-3 (Figure 2A)): 73.8% and 63.3% and 68.4% | CD11b (%) (MV4-11; MV4-11, 48 h): 58.9% | CD13 (%) (MV4-11; MV4-11, 48 h): 98.0% | CD14 (%) (MV4-11; MV4-11, 48 h): 57.6% | HLA-DR (%) (MV4-11; MV4-11, 48 h): 42.1% | CD11b (%) (MV4-11; [14]): 53.8% and 54.1% and 56.8% | Cell viability (%) (MV4-11; [14]): 72.5% and 67.1% and 68% | differentiation level (CD11b) (MV4-11; MV4-11, after 6–8 days of treatment): ~90% | CD11b levels (MV4-11; MV4-11, daily treatment for 48 h, replicates 1-3 (Suppl. Fig. 9A)): 39.5 and 43.7 and 45.9 | Annexin-V (%) (MV4-11; [15]): 5.32% and 4.14% and 5.2% | CD11b (%) (MV4-11; [15]): 11.1% and 6.62% and 5.25% | Annexin-V (%) (MV4-11; [16]): 28.1% and 26.8% and 25.7% | CD11b (%) (MV4-11; [16]): 30.2% and 35.8% and 36.8% | Annexin-V (%) (MV4-11; [17]): 38.5% and 41.2% and 41.8% | CD11b (%) (MV4-11; [17]): 53.4% and 55% and 51.8% | Annexin-V (%) (MV4-11; [18]): 79.6% and 81.2% and 80.7% | CD11b (%) (MV4-11; [18]): 74.9% and 73.2% and 74.5% | CD11b (%) (MV4-11; MV4-11 cell line, replicates 1-3 (Figure 2A)): 41.7% and 49.8% and 50.4% | CD11b (%) ([1]; primary AML patient sample 1 (Figure 2C)): 46.62% | CD11b (%) ([1]; primary AML patient sample 2 (Figure 2C)): 31.74% | CD11b (%) ([1]; primary AML patient sample 3 (Figure 2C)): 20.47% | CD11b (%) ([1]; primary AML patient sample 4 (Figure 2C)): 39.54% | CD11b (%) ([1]; primary AML patient sample 5 (Figure 2C)): 32.14% | CD11b (%) ([1]; primary AML patient sample 6 (Figure 2C)): 38.57% | CD11b (%) ([1]; primary AML patient sample 7 (Figure 2C)): 49.19% | CD11b (%) ([1]; primary AML patient sample 8 (Figure 2C)): 23.69% | CD11b-positive cells (%) ([1]; sample AML-1, 200 nM): 35.2% | CD11b-positive cells (%) ([1]; sample AML-1, 500 nM): 46.6% | CD11b-positive cells (%) ([1]; sample AML-2, 200 nM): 16.8% | CD11b-positive cells (%) ([1]; sample AML-2, 500 nM): 31.7% | CD11b-positive cells (%) ([1]; sample AML-3, 200 nM): 12.3% | CD11b-positive cells (%) ([1]; sample AML-3, 500 nM): 20.5% | CD11b-positive cells (%) ([1]; sample AML-4, 200 nM): 20.8% | CD11b-positive cells (%) ([1]; sample AML-4, 500 nM): 39.5% | CD11b-positive cells (%) ([1]; sample AML-5, 200 nM): 20.2% | CD11b-positive cells (%) ([1]; sample AML-5, 500 nM): 32.1% | CD11b-positive cells (%) ([1]; sample AML-6, 200 nM): 29.7% | CD11b-positive cells (%) ([1]; sample AML-6, 500 nM): 38.6% | CD11b-positive cells (%) ([1]; sample AML-7, 200 nM): 32.9% | CD11b-positive cells (%) ([1]; sample AML-7, 500 nM): 49.2% | CD11b-positive cells (%) ([1]; sample AML-8, 200 nM): 15.3% | CD11b-positive cells (%) ([1]; sample AML-8, 500 nM): 23.7%
